Experimental data from US7932042B1, “Methods and compositions for the treatment of psychotic disorders through the identification of the olanzapine poor response predictor genetic signature” (Suregene, LLC, priority 2010, dated 2011).
Marks after values point to notes of the source that are not given here.

Legend:
[1] = test system: patients suffering from schizophrenia; assay: Diagnostic performance of the OPRP test in the CATIE study for worsening symptoms (Delta PANSS ≧ 0); type: in vivo, human
Text: Several different measures of diagnostic performance can be used for comparing dichotomous outcomes. Two important metrics include percent positive agreement (PPA), a substitute for sensitivity, and percent negative agreement (PNA), a substitute for specificity.

[2] = test system: patients suffering from schizophrenia; assay: CATIE study: change in total PANSS (LOCF) by drug arm, segmented by OPRP genetic signature status; type: in vivo, human; set-up: key to Mean difference olanzapine vs. named drug, CATIE unsegemented / Mean difference olanzapine vs. named drug, CATIE OPRP+: difference in change in total PANSS score (LOCF); decrease = better response; settings: for Mean difference olanzapine vs. named drug, CATIE OPRP+: positive = olanzapine inferior; for DELTA PANSS % (mean change in PANSS score from baseline to LOCF): more negative = greater improvement
Description: The CATIE study, a large federally funded clinical trial designed to assess the efficacy of antipsychotics in a real world setting, is a valuable resource for determining the role of genes in baseline psychopathology and drug response (Lieberman et al., 2005; Stroup et al., 2003). […] Additionally, whole genome SNP genotyping was performed for roughly half of the trial participants (Sullivan et al., 2008). Genotype and phenotype data for the CATIE trial were recently made available to qualified researchers through the NIMH Center for Collaborative Genetic Studies on Mental Disorders. The sample consisted of a total of 738 patients. For the present study, the inventors assigned OPRP status to 628 subjects, including 411 subjects of self-reported European ancestry and 217 subjects of self-reported African ancestry. Further details on the patient population are described in the study by Sullivan and coworkers (Sullivan et al., 2008). […] The design of the CATIE study has been described in detail by others (Lieberman et al., 2005; Stroup et al., 2003). […] Instead of entering into Phase II of the trial, subjects who switched from perphenazine entered Phase IB. […] Subjects who failed Phase IB then entered Phase II. A total of 738 subjects consented to provide DNA for genetic study. […] Only retrospective genetic analyses, judged to be exempt from human studies requirements by an IRB, were conducted in the current study. For the genetic analyses presented herein, the inventors combined and evaluated drug response data for both Phase I and Phase IB of the CATIE study. All tested patients were studied using well established clinical endpoints comparing baseline, intermediate, and last observation carried forward (LOCF) for the PANSS scores using CATIE data. LOCF analysis is a commonly used clinical endpoint for clinical trials for neuropsychiatric drugs, with particular changes in PANSS scores being used to indicate clinically significant response (Leucht et al., 2009). Using the clinical data from the CAIE trial, the inventors derived several different metrics used for quantifying response in clinical trials of antipsychotic medications. […] The greater the decrease in PANSS score, the better the clinical response. The most direct measure of clinical response is absolute change in PANSS score. In addition to absolute change, the improvement is often reported as a percentage change from baseline PANSS score. […] To examine the relationship of genotypes to drug response the inventors used the publicly available PLINK software (Purcell et al., 2007; available on the world wide web at pngu.mgh.harvard.edu/purcell/[…] Helix tree (Version 6.4.1; Golden Helix, Bozeman, Mont.). The inventors used Last observation Carry Forward (LOCF) delta PANSS values as a measure of response to antipsychotic treatment. […] The inventors refined the test further by conducting association analysis on using only those subjects that comprised the TT genotype of […]. […] Presence of the TT or TC genotypes of […] in individuals that comprised the TT genotype at […] indicates OPRP positive status. […] As mentioned previously, the mean change in absolute or percent PANSS provides an important measure of efficacy in patients undergoing antipsychotic treatments. Indeed, many pivotal trials in the psychosis field used absolute and/or percentage change in PANSS Score as the primary endpoint (Leucht et al., 2009). […] Therefore, in addition to examining a categorical definition of clinically significant response, the inventors determined the impact of segmentation by OPRP genetic signature status on the quantitative measure of clinical improvement-delta PANSS for LOCF.

[3] = test system: patients suffering from schizophrenia; settings: population not segmented by OPRP status; negative = greater reduction in PANSS; cited from earlier work
[4] = test system: patients suffering from schizophrenia; settings: vs first generation antipsychotics; Davis et al. (2003); cited from earlier work
[5] = test system: patients suffering from schizophrenia; settings: weighted mean difference in PANSS score (absolute); negative = olanzapine superior; cited from earlier work
[6] = olanzapine-treated OPRP+ group minus named comparator drug OPRP+ group, positive = poorer response to olanzapine
[7] = delta PANSS, negative = olanzapine superior
[8] = olanzapine OPRP positive versus drug OPRP positive

Compound | Non-Worsen (number of subjects) ([1]; OPRP Positive) | Worsen (number of subjects, Delta PANSS ≧ 0) ([1]; OPRP Positive) | Number of individuals with change in total PANSS (LOCF) ≦−10% (responders) ([2]; OPRP Negative) | Number of individuals with change in total PANSS (LOCF) ≧−10% ([2]; OPRP Negative) | Number of individuals with delta PANSS (LOCF) ≦0% ([2]; OPRP Negative) | Number of individuals with delta PANSS (LOCF) ≧0% (worsening symptoms) ([2]; OPRP Negative) | Responders (change in PANSS of ≦−10%) ([2]; OPRP Negative) | Worsening (delta PANSS ≧0%) ([2]; OPRP Negative) | Number of individuals with change in total PANSS (LOCF) ≦−10% (responders) ([2]; OPRP Positive) | Number of individuals with change in total PANSS (LOCF) ≧−10% ([2]; OPRP Positive) | Number of individuals with delta PANSS (LOCF) ≦0% ([2]; OPRP Positive) | Number of individuals with delta PANSS (LOCF) ≧0% (worsening symptoms) ([2]; OPRP Positive) | Responders (change in PANSS of ≦−10%) ([2]; OPRP Positive) | Worsening (delta PANSS ≧0%) ([2]; OPRP Positive) | Mean difference (95% CI) in delta PANSS [2, 6] | Effect Size vs. Placebo [3] | Mean difference olanzapine vs. named drug, CATIE unsegemented [2, 7] | Mean difference olanzapine vs. named drug, CATIE OPRP+ ([2]; delta PANSS) | Effect Size vs. FGA [4] | Mean difference olanzapine vs. named drug, Meta-analysis [5] | further results
OCCN1CCN(CCCN2c3ccccc3Sc3ccc(Cl)cc32)CC1 [Perphenazine] | 9 | 3 | 39 | 71 | 65 | 45 | 35%^+ | 41%^+++ | 5 | 7 | 9 | 3 | 42%^^ | 25%^ | 12 (2.0 to 22.0) |  |  |  |  |  | 
O=C1Cc2cc(CCN3CCN(c4nsc5ccccc45)CC3)c(Cl)cc2N1 [Ziprasidone] | 7 | 4 | 16 | 53 | 35 | 34 | 23%^++++ | 49%^++++ | 2 | 9 | 7 | 4 | 18% | 36% | 4.8 (−2.7 to 12.3) | −0.48 | −4.9 | 4.8 | −0.04 | −8.3 | CATIE Effect Size [2, 8]: 0.2^b
Cc1nc2n(c(=O)c1CCN1CCC(c3noc4cc(F)ccc34)CC1)CCCC2 [Risperidone] | 13 | 7 |  |  |  |  |  |  |  |  |  |  |  |  |  | −0.59 |  |  | −0.25 | −1.9 | 
OCCOCCN1CCN(C2=Nc3ccccc3Sc3ccccc32)CC1 [Quetiapine] | 9 | 9 | 48 | 99 | 95 | 62 | 33%^+++ | 42%^+++ | 4 | 14 | 9 | 9 | 22% | 50% | 5.5 (−4.1 to 15.0) | −0.42 | −6.2 | 5.5 | 0.01 | −3.7 | Mean difference olanzapine vs. named drug, CATIE OPRP− [2, 7]: −8.4; CATIE Effect Size [2, 8]: 0.3^b
Cc1cc2c(s1)Nc1ccccc1N=C2N1CCN(C)CC1 [Olanzapine] | 8 | 18 | 73 | 66 | 113 | 26 | 53%^* | 19%^* | 1 | 25 | 8 | 18 | 4% | 69% |  |  |  |  |  |  | Non-Worsen (number of subjects) ([1]; OPRP Negative): 113; Worsen (number of subjects, Delta PANSS ≧ 0) ([1]; OPRP Negative): 26; DELTA PANSS % (mean change in PANSS score from baseline to LOCF) ([2]; OPRP Negative subjects): −11.6%; DELTA PANSS % (mean change in PANSS score from baseline to LOCF) ([2]; OPRP Positive subjects): 4.3%; DELTA PANSS % (mean change in PANSS score from baseline to LOCF) ([2]; OPRP Positive subjects, listed as olanzapine): +4.3%; CATIE Effect Size ([2]; olanzapine OPRP positive versus olanzapine OPRP negative): 1.0^a; CATIE Effect Size ([2]; olanzapine OPRP positive versus olanzapine OPRP negative, listed as olanzapine): 1.0; Mean difference (95% CI) in delta PANSS ([2]; olanzapine OPRP+ minus olanzapine OPRP−): 15.9 (9.7 to 22.1); Effect size (mean difference / standard deviation) ([2]; olanzapine OPRP+ vs olanzapine OPRP−): 1.0
